Assays:
Rattus norvegicus [1] = assay: Antisecretory activity in rat assessed as inhibition of pentagastrin-stimulated gastric acid secretion at 10 ug/kg, iv relative to PGE2; type: functional, Stomach
Mus musculus = assay: Induction of diarrheal activity in conscious mouse at 0.1 to 3 mg/kg, iv administered for 30 mins relative to PGE2; type: organism-based; parameters: dose 0.1-3 mg/kg, route intravenous; conditions: in vivo, 0.5 h
Canis familiaris = assay: Hypotensive activity in iv dosed PGE2-treated Mongrel dog assessed as change in blood pressure of greater than 10 mm by mercury manometer relative to PGE2; type: functional, Canis lupus familiaris
[2] = Spasmogenic activity in nulliparous guinea pig uterine relative to PGE2; type: functional, Cavia porcellus, Uterus
Cavia porcellus = assay: Bronchodilator activity in Reed-Willet guinea pig assessed as inhibition of histamine-induced bronchoconstriction at 0.28 mM administered through nebulizer for 1 min relative to PGE2; type: functional
Rattus norvegicus [3] = assay: Antisecretory activity in rat assessed as inhibition of pentagastrin-stimulated gastric acid secretion at 50 ug/kg, iv relative to PGE2; type: functional, Stomach
[4] = Dissociation constant, pKa of the compound; type: physicochemical

Compound | fold change (FC) (Rattus norvegicus [1]) | fold change (FC) (Mus musculus) | fold change (FC) (Canis familiaris) | fold change (FC) [2] | fold change (FC) (Cavia porcellus) | fold change (FC) (Rattus norvegicus [3]) | pKa [4]
CCCCC(C)(C)[C@H](O)/C=C/[C@H]1[C@H](O)CC(=O)[C@@H]1C/C=C\CCCC(=O)O | 360 | 5300 | 10 | 33 | 41 | – | –
CCCCC[C@H](O)/C=C/[C@H]1[C@H](O)CC(=O)[C@@H]1C/C=C\CCCc1nnn[nH]1 | – | 50 | 10 | 100 | 65 | 35 | –
CCCCC[C@H](O)/C=C/[C@H]1[C@H](O)CC(=O)[C@@H]1C/C=C\CCCC(=O)NC(C)=O | – | 100 | 25 | 65 | 63 | 160 | –
CCCCC[C@H](O)/C=C/[C@H]1[C@H](O)CC(=O)[C@@H]1C/C=C\CCCC(=O)NC(=O)c1ccccc1 | – | 83 | 10 | 67 | 87 | 40 | –
CCCCC[C@H](O)/C=C/[C@H]1[C@H](O)CC(=O)[C@@H]1C/C=C\CCNC(=O)NC(C)=O | – | < 5 | <0.5 | <0.1 | 25 | 0 | –
CCCCC[C@H](O)/C=C/[C@H]1[C@H](O)CC(=O)[C@@H]1C/C=C\CCCC(=O)NC(=O)NCC | – | 27 | 0.5 | 0.2 | 28 | 0 | –
CCCCC[C@H](O)/C=C/[C@H]1[C@H](O)CC(=O)[C@@H]1C/C=C\CCCC(=O)NS(C)(=O)=O | – | 10 | 1 | 7 | 47 | 12 | –
CCCCC[C@H](O)/C=C/[C@H]1[C@H](O)CC(=O)[C@@H]1C/C=C\CCCC(=O)NS(=O)(=O)c1ccccc1 | – | 33 | <0.5 | 3.1 | 28 | 20 | –
CCCCC[C@H](O)/C=C/[C@H]1[C@H](O)CC(=O)[C@@H]1C/C=C\CCCC(N)=O | – | 10 | 10 | 0.6 | 28 | 0 | –
CCCCC[C@H](O)/C=C/[C@@H]1[C@@H](C/C=C\CCCc2nnn[nH]2)[C@@H](O)C[C@H]1O | – | < 5 | 2.5 | 0.8 | – | – | –
CCCCC[C@H](O)/C=C/[C@@H]1[C@@H](C/C=C\CCCC(=O)NC(C)=O)[C@@H](O)C[C@H]1O | – | 78 | <0.5 | 30 | – | – | –
CCCCC[C@H](O)/C=C/[C@@H]1[C@@H](C/C=C\CCCC(=O)NC(=O)c2ccccc2)[C@@H](O)C[C@H]1O | – | < 5 | 0.5 | 0.9 | – | – | –
CCCCC[C@H](O)/C=C/[C@@H]1[C@@H](C/C=C\CCNC(=O)NC(C)=O)[C@@H](O)C[C@H]1O | – | < 5 | <0.5 | <0.1 | – | – | –
CCCCC[C@H](O)/C=C/[C@@H]1[C@@H](C/C=C\CCCC(=O)NC(=O)NCC)[C@@H](O)C[C@H]1O | – | < 10 | <0.5 | <0.1 | – | – | –
CCCCC[C@H](O)/C=C/[C@@H]1[C@@H](C/C=C\CCCC(=O)NS(C)(=O)=O)[C@@H](O)C[C@H]1O | – | 25 | <0.5 | <0.1 | – | – | –
CCCCC[C@H](O)/C=C/[C@@H]1[C@@H](C/C=C\CCCC(=O)NS(=O)(=O)c2ccccc2)[C@@H](O)C[C@H]1O | – | < 10 | <0.5 | <0.1 | – | – | –
CCCCC[C@H](O)/C=C/[C@@H]1[C@@H](C/C=C\CCCC(N)=O)[C@@H](O)C[C@H]1O | – | < 5 | 2.5 | <0.1 | – | – | –
CCCCC(C)(C)[C@H](O)/C=C/[C@H]1[C@H](O)CC(=O)[C@@H]1C/C=C\CCCc1nnn[nH]1 | 130 | 2550 | 10 | 120 | 76 | – | –
CCCCC(C)(C)[C@H](O)/C=C/[C@H]1[C@H](O)CC(=O)[C@@H]1C/C=C\CCCC(=O)NC(C)=O | 330 | 1250 | 2.5 | 100 | 24 | – | –
CCCCC(C)(C)[C@H](O)/C=C/[C@H]1[C@H](O)CC(=O)[C@@H]1C/C=C\CCCC(=O)NS(C)(=O)=O | 220 | 1350 | <0.5 | 25 | 28 | – | –
c1ccc([P+](CCCCc2nnn[nH]2)(c2ccccc2)c2ccccc2)cc1 | – | – | – | – | – | – | 4.93
CC(=O)NC(=O)CCCC[P+](c1ccccc1)(c1ccccc1)c1ccccc1 | – | – | – | – | – | – | 12.9
O=C(CCCC[P+](c1ccccc1)(c1ccccc1)c1ccccc1)NC(=O)c1ccccc1 | – | – | – | – | – | – | 12.9
CS(=O)(=O)NC(=O)CCCC[P+](c1ccccc1)(c1ccccc1)c1ccccc1 | – | – | – | – | – | – | 5.25
O=C(CCCC[P+](c1ccccc1)(c1ccccc1)c1ccccc1)NS(=O)(=O)c1ccccc1 | – | – | – | – | – | – | 5.12
NC(=O)CCCC[P+](c1ccccc1)(c1ccccc1)c1ccccc1 | – | – | – | – | – | – | 15.1
O=C(O)CCCC[P+](c1ccccc1)(c1ccccc1)c1ccccc1 | – | – | – | – | – | – | 5.19
CCCCC[C@H](O)/C=C/[C@@H]1[C@@H](C/C=C\CCCC(=O)O)[C@@H](O)C[C@H]1O [DINOPROST] | – | 6.5 | 10 | 10 | – | – | –

Reference: ChEMBL document CHEMBL3244067, “Synthesis and biological activity of carboxyl-terminus modified prostaglandin analogues” (J Med Chem, 1979)
